For assay [1], the system named is T1, Casein kinase I isoform epsilon (Homo sapiens), P49674 [K69R].
T1 sequence (whole entry): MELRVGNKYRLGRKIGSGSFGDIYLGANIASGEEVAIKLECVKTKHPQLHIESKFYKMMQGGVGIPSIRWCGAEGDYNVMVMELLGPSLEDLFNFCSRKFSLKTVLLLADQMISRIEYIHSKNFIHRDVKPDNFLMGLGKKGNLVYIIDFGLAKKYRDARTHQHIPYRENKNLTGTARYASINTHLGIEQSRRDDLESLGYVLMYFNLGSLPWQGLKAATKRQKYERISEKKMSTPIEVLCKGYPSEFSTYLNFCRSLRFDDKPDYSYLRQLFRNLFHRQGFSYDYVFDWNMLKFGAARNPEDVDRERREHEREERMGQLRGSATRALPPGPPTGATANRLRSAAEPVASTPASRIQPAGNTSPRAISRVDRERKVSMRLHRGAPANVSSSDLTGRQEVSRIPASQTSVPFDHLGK
The assay can be described thus: Binding affinity to human CK1epsilon K69R mutant assessed as change in melting temperature by differential scanning fluorimetry.

Assay [2] concerns the target Casein kinase I isoform delta (Homo sapiens) (UniProt P48730). The experiment in a line: Binding affinity to wild type human CK1delta (1-294 amino acids) assessed as change in melting temperature by differential scanning fluorimetry. A general note: Differential scanning fluorimetry follows unfolding on heating by fluorescence.
Assay [3] deals with T2, Casein kinase I isoform delta (Homo sapiens), P48730 [T67S].
T2 sequence (whole entry): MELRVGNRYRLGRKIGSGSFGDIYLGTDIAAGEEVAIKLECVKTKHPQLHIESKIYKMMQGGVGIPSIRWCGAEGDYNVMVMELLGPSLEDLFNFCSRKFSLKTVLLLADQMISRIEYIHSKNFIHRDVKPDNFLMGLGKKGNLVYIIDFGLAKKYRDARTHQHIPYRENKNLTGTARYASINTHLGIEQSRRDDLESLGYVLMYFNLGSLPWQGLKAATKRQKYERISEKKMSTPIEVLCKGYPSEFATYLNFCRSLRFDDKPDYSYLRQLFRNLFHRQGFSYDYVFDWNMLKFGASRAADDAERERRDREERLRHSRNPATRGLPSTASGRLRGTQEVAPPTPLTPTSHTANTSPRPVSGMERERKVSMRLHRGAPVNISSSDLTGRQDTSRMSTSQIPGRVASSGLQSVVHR
The experiment in a line: Binding affinity to human CK1delta T67S mutant assessed as change in melting temperature by differential scanning fluorimetry.

For assay [4], the system named is T3, Casein kinase I isoform epsilon (Homo sapiens), P49674 [S67T].
T3 sequence (whole entry): T1 sequence (whole entry) with S67T, R69K
The experiment in a line: Binding affinity to human CK1epsilon S67T mutant assessed as change in melting temperature by differential scanning fluorimetry.

For assay [5], the system named is T4, Casein kinase I isoform delta (Homo sapiens), P48730 [R69K].
T4 sequence (whole entry): T2 sequence (whole entry) with S67T, R69K
The assay can be described thus: Binding affinity to human CK1delta R69K mutant assessed as change in melting temperature by differential scanning fluorimetry.

Assay [6] deals with T5, Casein kinase I isoform epsilon (Homo sapiens), P49674 [F55I].
T5 sequence (whole entry): T1 sequence (whole entry) with F55I, R69K
The assay can be described thus: Binding affinity to human CK1epsilon F55I mutant assessed as change in melting temperature by differential scanning fluorimetry.

Assay [7] deals with Casein kinase I isoform epsilon (Homo sapiens) (UniProt P49674). The assay can be described thus: Binding affinity to wild type human CK1epsilon (1-294 amino acids) assessed as change in melting temperature by differential scanning fluorimetry.
Assay [8] relates to T6, Casein kinase I isoform delta (Homo sapiens), P48730 [I55F].
T6 sequence (whole entry): T2 sequence (whole entry) with I55F, S67T
The experiment in a line: Binding affinity to human CK1delta I55F mutant assessed as change in melting temperature by differential scanning fluorimetry.

SMILES strings stand for the structures. Positions count from the first letter of the chain named.

Data on two compounds can be found in ChEMBL document CHEMBL2176885, “Structural basis for the potent and selective inhibition of casein kinase 1 epsilon” (J Med Chem, 2012).

Sequence of Casein kinase I isoform delta (Homo sapiens) (P48730 whole entry, looked up, the tested form may be a part, canonical isoform): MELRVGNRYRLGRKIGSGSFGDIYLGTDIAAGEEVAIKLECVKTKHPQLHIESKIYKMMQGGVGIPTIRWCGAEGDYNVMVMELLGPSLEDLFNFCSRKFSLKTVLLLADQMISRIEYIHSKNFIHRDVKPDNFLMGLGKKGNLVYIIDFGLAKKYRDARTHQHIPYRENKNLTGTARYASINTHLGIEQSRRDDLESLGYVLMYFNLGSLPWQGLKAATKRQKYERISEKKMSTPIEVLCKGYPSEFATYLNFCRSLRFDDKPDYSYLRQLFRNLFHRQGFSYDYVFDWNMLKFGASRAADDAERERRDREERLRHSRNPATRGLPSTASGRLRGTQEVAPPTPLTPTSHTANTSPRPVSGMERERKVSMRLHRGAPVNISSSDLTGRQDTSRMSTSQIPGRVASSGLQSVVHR
Sequence of Casein kinase I isoform epsilon (Homo sapiens) (P49674 whole entry, looked up, the tested form may be a part, canonical isoform): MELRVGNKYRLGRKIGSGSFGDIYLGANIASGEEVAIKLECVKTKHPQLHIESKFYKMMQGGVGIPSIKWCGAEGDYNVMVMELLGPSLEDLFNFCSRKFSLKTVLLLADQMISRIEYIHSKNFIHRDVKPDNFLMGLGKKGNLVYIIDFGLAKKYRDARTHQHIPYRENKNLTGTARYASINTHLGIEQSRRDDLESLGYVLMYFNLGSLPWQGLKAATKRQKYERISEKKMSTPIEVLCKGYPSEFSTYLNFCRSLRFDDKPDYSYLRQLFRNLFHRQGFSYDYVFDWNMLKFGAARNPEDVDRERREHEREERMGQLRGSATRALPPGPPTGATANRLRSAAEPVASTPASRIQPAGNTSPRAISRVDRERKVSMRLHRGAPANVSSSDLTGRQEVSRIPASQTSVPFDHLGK

Turning to `Nc1ncnc2c1c(COc1cccc(Cl)c1)nn2C1CCOCC1`, the thermal shift (ΔTm) (as a rule, the change in melting temperature against a reference sample) in assay [1] was 11.5 °C; in assay [2] it was 4.8 °C; in assay [3], 4.8 °C; in assay [4], 11.5 °C; in assay [5] it was 4.8 °C; in assay [6] it was 6.4 °C. Moreover, the thermal shift (ΔTm) in assay [7] stood at 11.5 °C; in assay [8], 13.2 °C.

As for `Nc1nccc(-c2c(-c3ccc(F)cc3)ncn2C2CCCCC2)n1`, the ΔTm in assay [1] amounted to 8.6 °C; in assay [2] it was 9.6 °C; in assay [3], 9.6 °C; in assay [4] it was 8.6 °C; in assay [5] it was 9.6 °C; in assay [6], 10.4 °C. For the same compound, the ΔTm was found to be 8.6 °C in assay [7] and 9.6 °C in assay [8].
